Results on twelve compounds are retold here after PMC10377586 (Biomolecules, 2023).

One assay deals with T1, human MAO-A (Homo sapiens, UniProt P21397).
T1 construct: purchased Sigma Aldrich M7316
T1 sequence (P21397 1-527): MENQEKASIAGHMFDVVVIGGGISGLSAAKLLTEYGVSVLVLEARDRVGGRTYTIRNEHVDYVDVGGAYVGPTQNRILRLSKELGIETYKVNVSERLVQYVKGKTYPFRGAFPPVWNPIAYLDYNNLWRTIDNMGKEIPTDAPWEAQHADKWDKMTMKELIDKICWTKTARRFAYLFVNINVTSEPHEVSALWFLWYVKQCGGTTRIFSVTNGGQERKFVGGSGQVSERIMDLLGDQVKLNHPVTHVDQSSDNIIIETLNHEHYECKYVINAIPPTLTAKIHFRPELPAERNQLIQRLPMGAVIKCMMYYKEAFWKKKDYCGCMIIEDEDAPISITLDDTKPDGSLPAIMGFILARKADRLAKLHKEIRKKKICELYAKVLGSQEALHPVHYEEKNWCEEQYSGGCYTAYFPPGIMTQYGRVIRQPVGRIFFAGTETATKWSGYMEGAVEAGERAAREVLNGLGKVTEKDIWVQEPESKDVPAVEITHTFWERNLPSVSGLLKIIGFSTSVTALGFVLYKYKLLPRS
The assay can be described thus: Amplex Red monoamine oxidase assay, MAO-A. Type of assay: biochemical. The settings on record: for IC50: human recombinant MAO-A, read-out: MAO-A IC50 ± SEM; for inhibition at 1 µM: read-out: MAO-A % Inhibition ± SEM at 1 µM. The protocol:
The final compounds were evaluated in vitro for their human MAO-B (hMAO-B) inhibitory potencies, and selected structures were also investigated for human MAO-A (hMAO-A) inhibition.
Inhibition activity of compounds at MAO enzyme isoforms was measured via a fluorometric method using the Amplex Red Monoamine Oxidase Assay (ThermoFisher Scientific, Waltham, MA, USA #A12214) in a 96-well plates. Human recombinant MAO-B and MAO-A enzymes (Sigma Aldrich, St. Louis, MO, USA #M7441 and #M7316) were used. The assays were conducted as previously described.

For another assay, the target named is T2, rat A1 (rA1) ARs (Rattus norvegicus, UniProt P25099).
T2 construct: using rat brain cortical membrane preparations for A1; tissue Pel Freez; host or cells: rat brain cortex membranes
T2 sequence (P25099 1-326): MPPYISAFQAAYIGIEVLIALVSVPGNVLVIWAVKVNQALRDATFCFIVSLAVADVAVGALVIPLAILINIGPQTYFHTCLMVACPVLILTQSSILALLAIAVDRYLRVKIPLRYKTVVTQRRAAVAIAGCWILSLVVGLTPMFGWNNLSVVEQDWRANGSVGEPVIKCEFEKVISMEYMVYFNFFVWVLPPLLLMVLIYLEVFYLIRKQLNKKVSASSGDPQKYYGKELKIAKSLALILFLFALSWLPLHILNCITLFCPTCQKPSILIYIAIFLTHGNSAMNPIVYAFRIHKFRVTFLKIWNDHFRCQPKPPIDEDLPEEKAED
The assay can be described thus: Radioligand binding [3H]CCPA, rat brain cortical membranes. The settings on record: read-out: rA1 [3H]CCPA Ki ± SEM. The protocol: (§1) The final compounds were tested in radioligand binding assays to evaluate their affinity for all four ARs subtypes (see Table 2). Rat brain cortical membrane preparations were used as a source of rat A1 (rA1) ARs, and rat brain striatal membrane preparations served as a source of rat A2A (rA2A) ARs. For A2B- and A3AR assays, membrane preparations of Chinese hamster ovary (CHO) cells recombinantly expressing either human A2B (hA2B) or human A3 (hA3) ARs were employed.
(§2) Adenosine receptor radioligand binding assays were performed as previously described using rat brain cortical membrane preparations for A1 and rat brain striatal membrane preparations for A2A AR assays. Frozen rat brains (unstripped) were obtained from Pel Freez, Rogers, AR, USA. For assays at human AR subtypes, cell membranes of CHO cells recombinantly expressing the respective receptor were used. The following compounds were employed as radioligands: A1: [^3H]2-chloro-N^6-cyclopentyladenosine ([^3H]CCPA); A2A: [^3H]3-(3-hydroxypropyl)-7-methyl-8-(m-methoxystyryl)-1-propargylxanthine ([^3H]MSX-2); A2B: [^3H]8-(4-(4-(4-chlorophenyl)piperazine-1-sulfonyl)phenyl)-1-propylxanthine ([^3H]PSB-603); A3: [^3H]phenyl-8-ethyl-4-methyl-(8R)-4,5,7,8-tetrahydro-1H-imidazo[2,1-i]purine-5-one ([^3H]PSB-11). Initially, a single high concentration of compound was tested (1 µM). For potent compounds, full concentration–inhibition curves were determined using six to ten different concentrations of test compound spanning three orders of magnitude. At least three independent experiments were performed. Data were analyzed using GraphPad PRISM program version 4.0 or higher (Graph Pad, San Diego, CA, USA).

The target in a further assay is T3, human A3 (hA3) ARs (Homo sapiens, UniProt P0DMS8).
T3 construct: expressed in transfected cells; host or cells: CHO cells (membranes)
T3 sequence (P0DMS8 1-318): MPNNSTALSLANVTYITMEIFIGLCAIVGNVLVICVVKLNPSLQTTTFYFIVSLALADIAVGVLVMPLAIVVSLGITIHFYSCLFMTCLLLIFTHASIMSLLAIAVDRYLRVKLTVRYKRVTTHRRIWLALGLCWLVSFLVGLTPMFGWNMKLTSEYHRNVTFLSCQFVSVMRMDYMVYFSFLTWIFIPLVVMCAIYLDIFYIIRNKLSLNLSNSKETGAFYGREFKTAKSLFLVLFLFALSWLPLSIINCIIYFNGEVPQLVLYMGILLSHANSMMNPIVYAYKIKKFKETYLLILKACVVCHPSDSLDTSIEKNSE
The assay can be described thus: Radioligand binding [3H]PSB-11, CHO cell membranes. The settings on record: for Ki: CHO cell membranes, read-out: hA3 [3H]PSB-11 Ki ± SEM; for inhibition at 1 µM: read-out: hA3 [3H]PSB-11 % inhibition ± SEM at 1 µM. The protocol: as §1, §2

The next assay has as its target T4, human PDE4B1 (Homo sapiens, UniProt Q07343).
T4 construct: purchased BPS Biosciences
The experiment in a line: PDElight HTS cAMP phosphodiesterase assay, PDE4B1. Type of assay: biochemical. Conditions: for IC50: read-out: PDE 4B1 IC50 ± SEM; for inhibition at 10 µM: read-out: PDE 4B1 % Inhibition ± SEM at 10 µM. The protocol: Further biological evaluation of the presented compound library was performed determining inhibitory potencies against selected human PDE isoforms, namely, PDE4 and PDE10 (for results see Table 3).
Tested and reference compounds were dissolved in dimethyl sulfoxide (DMSO) at a concentration of 10 mM and further diluted in assay buffer (10 mM Tris-HCl, 10 mM magnesium chloride and 0.05% Tween-20; pH 7.4). Inhibition of human PDE10A and 4B1 was measured using PDElight HTS cAMP phosphodiesterase assay kit (Lonza, Basel, Switzerland) according to manufacturer’s recommendations. Then, 10 ng of PDE10A and 5 ng of PDE4B1 (BPS Biosciences, San Diego, CA, USA) in appropriate buffer was incubated with reference and tested compound for 20 min. […] Then PDELight AMP Detection Reagent was added and incubated 10 min. All reactions were carried out at 37 °C in 96 white-walled, half-area-well plates (PerkinElmer). Luminescence was measured in a multifunction plate reader (POLARstar Omega, BMG Labtech, Ortenberg, Germany). The percentage of inhibition and IC50s were computed using GraphPad Prism Version 6.0 software.

T4 sequence (Q07343 whole entry): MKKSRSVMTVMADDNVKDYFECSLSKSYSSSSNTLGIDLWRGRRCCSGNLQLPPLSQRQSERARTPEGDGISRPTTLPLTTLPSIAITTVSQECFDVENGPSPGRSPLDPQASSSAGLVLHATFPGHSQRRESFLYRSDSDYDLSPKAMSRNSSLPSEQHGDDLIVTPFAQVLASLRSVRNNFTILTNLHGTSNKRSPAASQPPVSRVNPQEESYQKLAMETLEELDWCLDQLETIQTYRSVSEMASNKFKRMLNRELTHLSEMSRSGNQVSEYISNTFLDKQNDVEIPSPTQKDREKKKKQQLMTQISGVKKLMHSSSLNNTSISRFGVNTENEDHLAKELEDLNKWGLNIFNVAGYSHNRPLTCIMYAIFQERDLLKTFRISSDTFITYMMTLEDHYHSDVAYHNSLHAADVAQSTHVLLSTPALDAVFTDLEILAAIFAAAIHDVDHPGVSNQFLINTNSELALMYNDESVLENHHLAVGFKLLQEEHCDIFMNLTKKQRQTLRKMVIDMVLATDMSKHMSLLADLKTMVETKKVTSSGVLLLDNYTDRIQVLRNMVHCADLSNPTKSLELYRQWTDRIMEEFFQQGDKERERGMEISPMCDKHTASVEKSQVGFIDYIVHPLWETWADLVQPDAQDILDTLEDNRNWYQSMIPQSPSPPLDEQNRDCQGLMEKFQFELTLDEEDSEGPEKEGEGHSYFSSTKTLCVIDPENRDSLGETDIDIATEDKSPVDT

On to `Cn1c(=O)c2c(nc(NCCc3ccc(O)c(O)c3)n2C)n(C)c1=O` [Compound 11a, 8-((3,4-Dihydroxyphenethyl)amino)-1,3,7-trimethyl-3,7-dihydro-1H-purine-2,6-dione], for which the IC50 on human MAO-A was > 1000 nM; at human PDE4B1, 7850 ± 1850 nM. The inhibition at 1 µM on human MAO-A was 44%; on human A3 (hA3) ARs it was -1%. In addition, the values for the Ki on rat A1 (rA1) ARs and on human A3 (hA3) ARs were 1980 ± 290 nM and > 1000 nM, respectively.
`CCn1c(NCCc2ccc(O)c(O)c2)nc2c1c(=O)n(C)c(=O)n2C` [Compound 11b, 8-((3,4-Dihydroxyphenethyl)amino)-7-ethyl-1,3-dimethyl-3,7-dihydro-1H-purine-2,6-dione]: the IC50 on human MAO-A was 891 ± 63 nM; on human PDE4B1 it was 2520 ± 140 nM. In addition, the Ki was 479 ± 95 nM at rat A1 (rA1) ARs and > 1000 nM on human A3 (hA3) ARs. For the same compound, the inhibition at 1 µM on human A3 (hA3) ARs is -5%.
For the compound `CCCn1c(NCCc2ccc(O)c(O)c2)nc2c1c(=O)n(C)c(=O)n2C` [Compound 11c, 8-((3,4-Dihydroxyphenethyl)amino)-1,3-dimethyl-7-propyl-3,7-dihydro-1H-purine-2,6-dione], the half-maximal inhibitory concentration (IC50) on human MAO-A was > 1000 nM; at human PDE4B1, 3320 ± 800 nM. The inhibition at 1 µM at human MAO-A is 33%; at human A3 (hA3) ARs, 5%. In addition, the figures for the Ki on rat A1 (rA1) ARs and at human A3 (hA3) ARs were 730 ± 93 nM and > 1000 nM, respectively.
Turning to `CC(C)n1c(NCCc2ccc(O)c(O)c2)nc2c1c(=O)n(C)c(=O)n2C` [Compound 11d, 8-((3,4-Dihydroxyphenethyl)amino)-7-isopropyl-1,3-dimethyl-3,7-dihydro-1H-purine-2,6-dione], the IC50 on human MAO-A is ≥ 1000 nM; on human PDE4B1, 2440 ± 800 nM. The inhibition at 1 µM turned out to be 47% at human MAO-A and 12% on human A3 (hA3) ARs. In addition, the figures for the Ki on rat A1 (rA1) ARs and at human A3 (hA3) ARs were 857 ± 43 nM and > 1000 nM, respectively.
In the case of `CCCCn1c(NCCc2ccc(O)c(O)c2)nc2c1c(=O)n(C)c(=O)n2C` [Compound 11e, 7-Butyl-8-((3,4-dihydroxyphenethyl)amino)-1,3-dimethyl-3,7-dihydro-1H-purine-2,6-dione], the 50% inhibitory concentration (IC50) is > 1000 nM at human MAO-A and 3160 ± 530 nM on human PDE4B1. Moreover, the inhibition at 1 µM at human MAO-A came out at 38%; on human A3 (hA3) ARs, 0%. Moreover, the Ki on rat A1 (rA1) ARs is 304 ± 66 nM; on human A3 (hA3) ARs, > 1000 nM.
In the case of `CC(C)Cn1c(NCCc2ccc(O)c(O)c2)nc2c1c(=O)n(C)c(=O)n2C` [Compound 11f, 8-((3,4-Dihydroxyphenethyl)amino)-7-isobutyl-1,3-dimethyl-3,7-dihydro-1H-purine-2,6-dione], the IC50 on human MAO-A was > 1000 nM; at human PDE4B1, 3760 ± 160 nM. Further, the results for the inhibition at 1 µM on human MAO-A and at human A3 (hA3) ARs were 42% and -6%, respectively. The Ki at rat A1 (rA1) ARs is 1130 ± 180 nM; at human A3 (hA3) ARs, > 1000 nM.
For `CCC(C)n1c(NCCc2ccc(O)c(O)c2)nc2c1c(=O)n(C)c(=O)n2C` (stereo not drawn) [Compound 11g, 7-(Sec-butyl)-8-((3,4-dihydroxyphenethyl)amino)-1,3-dimethyl-3,7-dihydro-1H-purine-2,6-dione], the figures for the IC50 on human MAO-A and on human PDE4B1 were > 1000 nM and 4410 ± 230 nM, respectively. The inhibition at 1 µM is 44% on human MAO-A and -4% at human A3 (hA3) ARs. The figures for the inhibitory constant (Ki) on rat A1 (rA1) ARs and on human A3 (hA3) ARs were 1170 ± 380 nM and > 1000 nM, respectively.
In the case of `CCCCCn1c(NCCc2ccc(O)c(O)c2)nc2c1c(=O)n(C)c(=O)n2C` [Compound 11h, 8-((3,4-Dihydroxyphenethyl)amino)-1,3-dimethyl-7-pentyl-3,7-dihydro-1H-purine-2,6-dione], the concentration for half-maximal inhibition (IC50) at human MAO-A worked out at 692 ± 7 nM; at human PDE4B1 it was 4430 ± 250 nM. Besides, the Ki is 191 ± 30 nM at rat A1 (rA1) ARs and > 1000 nM on human A3 (hA3) ARs. For the same compound, the inhibition at 1 µM on human A3 (hA3) ARs worked out at 0%.
Consider `CCCCCCn1c(NCCc2ccc(O)c(O)c2)nc2c1c(=O)n(C)c(=O)n2C` [Compound 11i, 8-((3,4-Dihydroxyphenethyl)amino)-7-hexyl-1,3-dimethyl-3,7-dihydro-1H-purine-2,6-dione], for which, on human MAO-A, the IC50 came to 246 ± 72 nM. Moreover, on rat A1 (rA1) ARs, the Ki is > 10000 nM. Moreover, on human A3 (hA3) ARs, the Ki was > 1000 nM and the inhibition at 1 µM was 3%. Further, on human PDE4B1, the inhibition at 10 µM is 42% and the IC50 is > 10000 nM.
On to `Cn1c(=O)c2c(nc(NCCc3ccc(O)c(O)c3)n2Cc2ccccc2)n(C)c1=O` [Compound 11j, 7-Benzyl-8-((3,4-dihydroxyphenethyl)amino)-1,3-dimethyl-3,7-dihydro-1H-purine-2,6-dione], for which the half-inhibitory concentration (IC50) at human MAO-A came to 576 ± 68 nM; on human PDE4B1 it was 3290 ± 540 nM. In addition, the figures for the inhibitory constant (Ki) on rat A1 (rA1) ARs and on human A3 (hA3) ARs were 455 ± 77 nM and > 1000 nM, respectively. Besides, the inhibition at 1 µM on human A3 (hA3) ARs came out at 7%.
As for `Cn1c(=O)c2c(nc(NCCc3ccc(O)c(O)c3)n2CCc2ccccc2)n(C)c1=O` [Compound 11k, 8-((3,4-Dihydroxyphenethyl)amino)-1,3-dimethyl-7-phenethyl-3,7-dihydro-1H-purine-2,6-dione], the IC50 on human MAO-A was found to be 256 ± 93 nM; on human PDE4B1, 4400 ± 540 nM. Besides, the Ki was ≥ 10000 nM on rat A1 (rA1) ARs and > 1000 nM at human A3 (hA3) ARs. In addition, the inhibition at 1 µM on human A3 (hA3) ARs was -1%.
With `Cn1c(=O)c2c(nc(NCCc3ccc(O)c(O)c3)n2CCOc2ccccc2)n(C)c1=O` [Compound 11l, 8-((3,4-Dihydroxyphenethyl)amino)-1,3-dimethyl-7-(2-phenoxyethyl)-3,7-dihydro-1H-purine-2,6-dione], the IC50 at human MAO-A is > 1000 nM; at human PDE4B1, > 10000 nM. The inhibition at 1 µM on human MAO-A is 41%; at human A3 (hA3) ARs it was -2%. For the same compound, the Ki is 124 ± 22 nM at rat A1 (rA1) ARs and > 1000 nM on human A3 (hA3) ARs. In addition, the inhibition at 10 µM at human PDE4B1 worked out at 20%.

For orientation: IC50 means the concentration that gives 50% inhibition. One may read the inhibition as the drop in the measured response relative to a control, in per cent. The Ki is a dissociation constant, usually derived from enzyme kinetics or from competition with a known ligand.
